Data published in ChEMBL document CHEMBL5537126, “Advances in targeting Phosphodiesterase 1: From mechanisms to potential therapeutics” (Eur J Med Chem, 2024).

Columns and labels:
[1] = Metabolic stability in rat liver microsomes assessed as half life; assay type: ADME, Microsome
[2] = target: T1, Dual specificity calcium/calmodulin-dependent 3',5'-cyclic nucleotide phosphodiesterase 1B (Homo sapiens, UniProt Q01064); assay: Inhibition of PDE1B (unknown origin) using [3H]-cGMP substrate incubated for 15 mins by liquid scintillation counting method
[3] = Inhibition of PDE1 (unknown origin); set-up: species or system Homo sapiens
[4] = Inhibition of PDE9 (unknown origin) by fluorescent based assay; set-up: species or system Homo sapiens
[5] = target: T1, Dual specificity calcium/calmodulin-dependent 3',5'-cyclic nucleotide phosphodiesterase 1B; assay: Inhibition of PDE1B (unknown origin)
[6] = target: cGMP-specific 3',5'-cyclic phosphodiesterase (Homo sapiens, UniProt O76074); assay: Inhibition of PDE5 (unknown origin)
[7] = Inhibition of PDE3 (unknown origin) by fluorescent based assay; set-up: species or system Homo sapiens
[8] = target: Dual specificity calcium/calmodulin-dependent 3',5'-cyclic nucleotide phosphodiesterase 1C (Homo sapiens, UniProt Q14123); assay: Inhibition of PDE1C (unknown origin) using [3H]-cAMP as substrate incubated for 1 hr by SPA assay
[9] = target: Phosphodiesterase 4 (Homo sapiens) (UniProt P27815+Q08499+Q07343+Q08493); assay: Inhibition of PDE4 (unknown origin) at 10 uM relative to control; assay type: protein assay
[10] = target: T2, Dual specificity calcium/calmodulin-dependent 3',5'-cyclic nucleotide phosphodiesterase 1A (Homo sapiens, UniProt P54750); assay: Inhibition of PDE1A (unknown origin) using [3H]-cAMP as substrate incubated for 1 hr by SPA assay
[11] = target: T1, Dual specificity calcium/calmodulin-dependent 3',5'-cyclic nucleotide phosphodiesterase 1B; assay: Inhibition of PDE1B (unknown origin) using [3H]-cAMP as substrate incubated for 1 hr by SPA assay
[12] = Binding affinity to PDE1 (unknown origin) assessed as inhibition constant; set-up: species or system Homo sapiens
[13] = target: High affinity cGMP-specific 3',5'-cyclic phosphodiesterase 9A (Homo sapiens, UniProt O76083); assay: Inhibition of PDE9A (unknown origin)
[14] = target: cGMP-inhibited 3',5'-cyclic phosphodiesterase 3A (Homo sapiens, UniProt Q14432); assay: Inhibition of PDE3A (unknown origin)
[15] = target: High affinity 3',5'-cyclic-AMP phosphodiesterase 7A (Homo sapiens, UniProt Q13946); assay: Inhibition of PDE7A (unknown origin)
[16] = target: T2, Dual specificity calcium/calmodulin-dependent 3',5'-cyclic nucleotide phosphodiesterase 1A; assay: Inhibition of PDE1A3 (unknown origin)
[17] = target: cGMP-inhibited 3',5'-cyclic phosphodiesterase 3B (Homo sapiens, UniProt Q13370); assay: Binding affinity to PDE3B (unknown origin) using [3H]cAMP as substrate assessed as inhibition constant incubated for 1 hrs by […] assay
[18] = target: 3',5'-cyclic-AMP phosphodiesterase 4D (Homo sapiens, UniProt Q08499); assay: Inhibition of PDE4D (unknown origin)
[19] = target: cGMP-dependent 3',5'-cyclic phosphodiesterase (Homo sapiens, UniProt O00408); assay: Inhibition of full-length recombinant human PDE2A using [3H]-cGMP as substrate incubated for 10 mins by SPA assay
[20] = target: High affinity cAMP-specific and IBMX-insensitive 3',5'-cyclic phosphodiesterase 8A (Homo sapiens, UniProt O60658); assay: Inhibition of full-length recombinant human PDE8A using [3H]-cAMP as substrate incubated for 10 mins by SPA assay

T1 sequence (Q01064 whole entry): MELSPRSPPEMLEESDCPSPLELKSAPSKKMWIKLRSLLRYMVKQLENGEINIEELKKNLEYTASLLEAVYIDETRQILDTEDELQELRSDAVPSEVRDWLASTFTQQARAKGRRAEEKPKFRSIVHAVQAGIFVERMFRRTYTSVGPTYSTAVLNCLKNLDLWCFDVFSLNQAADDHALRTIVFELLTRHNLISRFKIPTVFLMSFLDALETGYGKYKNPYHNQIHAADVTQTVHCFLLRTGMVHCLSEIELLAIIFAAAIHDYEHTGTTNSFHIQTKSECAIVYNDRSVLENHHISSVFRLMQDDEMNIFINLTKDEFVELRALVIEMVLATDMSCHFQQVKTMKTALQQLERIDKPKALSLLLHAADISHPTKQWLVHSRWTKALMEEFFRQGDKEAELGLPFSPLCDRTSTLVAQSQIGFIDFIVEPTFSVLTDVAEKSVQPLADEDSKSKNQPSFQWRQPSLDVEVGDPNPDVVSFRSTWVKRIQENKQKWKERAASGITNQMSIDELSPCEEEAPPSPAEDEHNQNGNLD
T2 sequence (P54750 whole entry): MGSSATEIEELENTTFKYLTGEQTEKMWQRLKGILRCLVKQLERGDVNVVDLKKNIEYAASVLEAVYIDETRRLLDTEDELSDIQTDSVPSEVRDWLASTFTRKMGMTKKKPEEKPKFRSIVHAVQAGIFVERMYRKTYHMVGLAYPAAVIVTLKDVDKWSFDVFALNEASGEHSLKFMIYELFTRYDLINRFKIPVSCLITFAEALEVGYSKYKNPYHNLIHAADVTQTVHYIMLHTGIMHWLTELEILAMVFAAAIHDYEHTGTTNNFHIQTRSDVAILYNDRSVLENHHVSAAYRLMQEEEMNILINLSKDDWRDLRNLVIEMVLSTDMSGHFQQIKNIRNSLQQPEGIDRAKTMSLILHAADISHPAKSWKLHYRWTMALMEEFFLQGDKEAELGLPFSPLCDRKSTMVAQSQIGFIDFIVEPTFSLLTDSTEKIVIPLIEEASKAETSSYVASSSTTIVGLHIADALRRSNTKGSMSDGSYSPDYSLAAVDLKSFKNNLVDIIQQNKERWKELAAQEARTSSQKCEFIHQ
Dual specificity calcium/calmodulin-dependent 3',5'-cyclic nucleotide phosphodiesterase 1C, sequence (Q14123 whole entry): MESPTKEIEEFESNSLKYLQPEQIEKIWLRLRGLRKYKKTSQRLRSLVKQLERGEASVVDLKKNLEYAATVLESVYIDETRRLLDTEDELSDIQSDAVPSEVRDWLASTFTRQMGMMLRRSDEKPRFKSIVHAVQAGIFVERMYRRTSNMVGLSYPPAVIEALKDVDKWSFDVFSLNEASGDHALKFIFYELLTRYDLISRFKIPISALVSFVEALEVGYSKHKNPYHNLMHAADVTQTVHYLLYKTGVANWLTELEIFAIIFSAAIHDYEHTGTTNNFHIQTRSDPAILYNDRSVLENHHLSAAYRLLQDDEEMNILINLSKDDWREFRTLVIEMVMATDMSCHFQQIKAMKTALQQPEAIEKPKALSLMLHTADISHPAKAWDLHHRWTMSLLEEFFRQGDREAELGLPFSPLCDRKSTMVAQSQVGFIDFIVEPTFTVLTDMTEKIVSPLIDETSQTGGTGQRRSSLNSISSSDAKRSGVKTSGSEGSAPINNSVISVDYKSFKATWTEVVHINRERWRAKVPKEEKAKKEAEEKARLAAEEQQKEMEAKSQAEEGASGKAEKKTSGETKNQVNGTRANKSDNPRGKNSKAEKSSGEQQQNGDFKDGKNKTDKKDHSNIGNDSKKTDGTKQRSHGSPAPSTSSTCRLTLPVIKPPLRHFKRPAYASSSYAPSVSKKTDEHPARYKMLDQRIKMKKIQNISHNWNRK
High affinity 3',5'-cyclic-AMP phosphodiesterase 7A, sequence (Q13946 whole entry): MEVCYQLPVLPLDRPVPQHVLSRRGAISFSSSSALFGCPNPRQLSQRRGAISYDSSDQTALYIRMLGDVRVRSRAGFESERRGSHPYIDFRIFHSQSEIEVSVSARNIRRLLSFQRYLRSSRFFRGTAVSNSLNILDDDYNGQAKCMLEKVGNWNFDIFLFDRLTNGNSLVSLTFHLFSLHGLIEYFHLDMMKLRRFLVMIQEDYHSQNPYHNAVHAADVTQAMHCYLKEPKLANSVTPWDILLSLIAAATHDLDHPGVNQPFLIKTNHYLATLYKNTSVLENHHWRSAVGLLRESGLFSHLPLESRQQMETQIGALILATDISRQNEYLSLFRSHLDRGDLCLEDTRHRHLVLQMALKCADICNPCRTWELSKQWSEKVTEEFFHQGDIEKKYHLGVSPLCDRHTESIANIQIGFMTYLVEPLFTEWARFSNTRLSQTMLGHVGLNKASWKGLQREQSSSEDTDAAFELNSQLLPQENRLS
cGMP-inhibited 3',5'-cyclic phosphodiesterase 3A, sequence (Q14432 whole entry): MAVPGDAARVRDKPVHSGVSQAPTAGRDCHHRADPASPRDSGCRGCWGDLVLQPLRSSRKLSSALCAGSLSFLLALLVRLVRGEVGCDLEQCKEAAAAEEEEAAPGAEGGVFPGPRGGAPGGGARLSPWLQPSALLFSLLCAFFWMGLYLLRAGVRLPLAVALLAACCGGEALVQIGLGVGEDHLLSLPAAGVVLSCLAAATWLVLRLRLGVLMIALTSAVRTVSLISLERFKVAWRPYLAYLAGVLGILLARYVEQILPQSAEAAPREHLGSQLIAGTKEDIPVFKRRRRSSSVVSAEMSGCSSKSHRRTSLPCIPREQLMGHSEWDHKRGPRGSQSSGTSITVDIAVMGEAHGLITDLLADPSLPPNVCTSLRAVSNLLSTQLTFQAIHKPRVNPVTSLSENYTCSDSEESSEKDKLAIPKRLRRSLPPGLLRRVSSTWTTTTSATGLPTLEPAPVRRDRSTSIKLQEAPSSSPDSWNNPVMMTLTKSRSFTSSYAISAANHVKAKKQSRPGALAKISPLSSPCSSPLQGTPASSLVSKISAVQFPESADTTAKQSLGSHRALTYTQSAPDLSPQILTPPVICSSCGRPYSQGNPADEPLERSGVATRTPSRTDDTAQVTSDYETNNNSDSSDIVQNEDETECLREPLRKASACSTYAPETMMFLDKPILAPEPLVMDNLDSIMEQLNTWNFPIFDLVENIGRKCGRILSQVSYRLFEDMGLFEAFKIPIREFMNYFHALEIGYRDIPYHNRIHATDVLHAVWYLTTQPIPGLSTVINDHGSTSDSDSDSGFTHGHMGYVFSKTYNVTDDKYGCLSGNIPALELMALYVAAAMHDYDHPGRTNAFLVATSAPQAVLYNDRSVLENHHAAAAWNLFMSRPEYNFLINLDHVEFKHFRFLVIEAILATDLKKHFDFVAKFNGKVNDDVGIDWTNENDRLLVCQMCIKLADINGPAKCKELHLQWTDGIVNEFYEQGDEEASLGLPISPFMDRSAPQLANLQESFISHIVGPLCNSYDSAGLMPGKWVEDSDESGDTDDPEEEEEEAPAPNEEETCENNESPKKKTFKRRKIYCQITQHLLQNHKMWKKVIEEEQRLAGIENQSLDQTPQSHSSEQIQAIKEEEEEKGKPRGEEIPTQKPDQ
cGMP-inhibited 3',5'-cyclic phosphodiesterase 3B, sequence (Q13370 whole entry): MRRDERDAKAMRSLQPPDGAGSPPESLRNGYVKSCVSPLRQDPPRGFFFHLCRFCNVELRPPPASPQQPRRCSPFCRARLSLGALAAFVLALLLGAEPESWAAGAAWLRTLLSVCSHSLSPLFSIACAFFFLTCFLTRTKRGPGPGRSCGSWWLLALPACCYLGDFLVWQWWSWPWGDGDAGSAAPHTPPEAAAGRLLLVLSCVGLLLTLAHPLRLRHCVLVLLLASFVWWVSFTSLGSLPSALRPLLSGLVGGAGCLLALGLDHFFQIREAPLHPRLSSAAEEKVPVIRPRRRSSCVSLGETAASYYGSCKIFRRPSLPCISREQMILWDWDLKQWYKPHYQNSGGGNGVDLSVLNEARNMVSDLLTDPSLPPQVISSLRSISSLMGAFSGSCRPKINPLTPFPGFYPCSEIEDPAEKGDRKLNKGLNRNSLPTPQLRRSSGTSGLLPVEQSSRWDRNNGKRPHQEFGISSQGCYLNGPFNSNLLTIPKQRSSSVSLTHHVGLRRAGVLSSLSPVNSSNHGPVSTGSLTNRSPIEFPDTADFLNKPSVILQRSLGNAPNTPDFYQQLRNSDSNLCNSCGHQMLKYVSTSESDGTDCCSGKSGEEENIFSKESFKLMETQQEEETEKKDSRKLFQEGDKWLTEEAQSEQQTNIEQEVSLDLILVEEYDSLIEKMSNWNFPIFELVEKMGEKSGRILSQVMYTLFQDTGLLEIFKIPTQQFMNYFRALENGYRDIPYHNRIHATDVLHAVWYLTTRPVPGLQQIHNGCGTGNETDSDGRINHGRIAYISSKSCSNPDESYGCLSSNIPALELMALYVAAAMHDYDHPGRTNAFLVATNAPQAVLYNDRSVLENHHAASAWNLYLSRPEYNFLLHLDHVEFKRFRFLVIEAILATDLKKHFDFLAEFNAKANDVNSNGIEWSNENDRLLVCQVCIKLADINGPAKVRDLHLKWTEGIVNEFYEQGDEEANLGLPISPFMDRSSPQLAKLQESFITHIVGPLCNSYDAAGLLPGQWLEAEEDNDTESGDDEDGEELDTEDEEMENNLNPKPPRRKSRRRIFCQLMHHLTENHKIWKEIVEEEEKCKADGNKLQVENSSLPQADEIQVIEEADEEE

Cn1c(=O)c2c(Nc3ccccc3)n(Cc3ccc(-c4cccc(F)n4)cc3)nc2n(CC2CC2)c1=O
half-life [1]: 4.5 min | IC50 [2]: 3.8 nM

C[C@@H](Nc1nc2c(cnn2C2CCCC2)c(=O)[nH]1)c1ccc(Cl)cc1
IC50 [3]: 0.08 µM | IC50 [4]: 58 nM

COc1ccc(Cn2c(=O)n3ncnc3c3cc(CN4CCCOCC4)sc32)cc1
IC50 [5]: < 100 nM

COCc1nc2c([nH]1)c(=O)n(C)c(=O)n2CC(C)C
IC50 [3]: 8 µM | IC50 [6]: 10 µM | IC50 [7]: 240 nM

CCOC(=O)C1=C[C@]2(CC)CCCN3CCc4c(n1c1ccccc41)[C@@H]32 [VINPOCETINE]
IC50 [3]: 30 µM

COc1ccc2c(N3C[C@@H](Cl)[C@@H]4OC[C@@H](OCc5ccccc5)[C@@H]43)ncnc2c1OC
IC50 [8]: 573 nM | inhibition [9]: 27% | IC50 [10]: 4.66 µM | IC50 [11]: 2820 nM

COc1cc2ncnc(N3C[C@@H](OO)[C@@H]4OC[C@@H](OC(C)=O)[C@@H]43)c2cc1OC
IC50 [8]: 2200 nM

COc1cc2ncnc(N3C[C@@H](Cl)[C@@H]4OC[C@@H](OC)[C@@H]43)c2cc1OC
IC50 [8]: 2400 nM

Cn1c(=O)c2c(ncn2C)n(C)c1=O [CAFFEINE]
IC50 [3]: 479 µM

COCCOC(=O)C1=C(C)NC(C)=C(C(=O)OC(C)C)C1c1cccc([N+](=O)[O-])c1 (stereo not given) [NIMODIPINE]
IC50 [10]: 2 µM

CCCc1nn(C)c2c(=O)[nH]c(-c3cc(S(=O)(=O)N4CCN(C)CC4)ccc3OCC)nc12
IC50 [3]: 0.396 µM

CN1C(=O)c2c(nn(Cc3ccc(-c4cccc(F)n4)cc3)c2Nc2ccccc2)N2C1=N[C@@H]1CCC[C@@H]12 [LENRISPODUN PHOSPHATE]
Ki [12]: 0.058 nM

C[C@@H](Nc1nc2c(cnn2C(C)(C)C)c(=O)n1Cc1ccc(F)cc1)c1ccc(Cl)cc1
IC50 [13]: > 10 µM | IC50 [3]: 0.0029 µM | IC50 [14]: > 10 µM | half-life [1]: 15.8 min | IC50 [15]: > 10 µM

O=c1c2c(Cc3ccccc3)n[nH]c2c2cccnc2n1-c1ccccc1
IC50 [16]: 32 nM | IC50 [5]: 790 nM

CNc1ncnc2c1ncn2Cc1ccccc1F [BW-A78U]
Ki [12]: 3700 nM | IC50 [6]: 6.5 µM | Ki [17]: 35 µM

Cn1c(=O)c2c(Nc3ccc(F)cc3)n(Cc3ccc(S(C)(=O)=O)cc3)nc2n(CC2CC2)c1=O
IC50 [18]: 1500 nM | IC50 [19]: 8.52 µM | IC50 [20]: > 10 µM | half-life [1]: 28.5 min | IC50 [15]: > 2.5 µM | IC50 [2]: 21 nM
